Data as given in patent US8952024B2, “Herbicidal pyrimidone derivatives” (E I du Pont de Nemours and Company, priority 2009, dated 2015).

Assays:
Assay type in all cases: in vivo
[1] = tested on: bermudagrass (Cynodon dactylon); assay: Test B pre-/postemergence plant response
Procedure, shortened: (§1)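 Ratings reflect visual comparison with untreated controls 13 to 15 days after application, from 0 (no effect) to 100 (complete control). Application was preemergence to seeded loam/sand soil or postemergence to 1- to 4-leaf plants, with compound in a non-phytotoxic, surfactant-containing solvent.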

[2] = tested on: blackgrass (Alopecurus myosuroides); assay: Test B pre-/postemergence plant response
Procedure, shortened: as §1

[3] = tested on: cocklebur (Xanthium strumarium); assay: Test B pre-/postemergence plant response
Procedure, shortened: as §1

[4] = tested on: downy bromegrass (Bromus tectorum); assay: Test B pre-/postemergence plant response
Procedure, shortened: as §1

[5] = tested on: giant foxtail (Setaria faberii); assay: Test B pre-/postemergence plant response
Procedure, shortened: as §1

[6] = tested on: green foxtail (Setaria viridis); assay: Test B pre-/postemergence plant response
Procedure, shortened: as §1

[7] = tested on: johnsongrass (Sorghum halepense); assay: Test B pre-/postemergence plant response
Procedure, shortened: as §1

[8] = tested on: kochia (Kochia scoparia); assay: Test B pre-/postemergence plant response
Procedure, shortened: as §1

[9] = tested on: morningglory (Ipomoea coccinea); assay: Test B pre-/postemergence plant response
Procedure, shortened: as §1

[10] = tested on: ragweed (common ragweed, Ambrosia elatior); assay: Test B pre-/postemergence plant response
Procedure, shortened: as §1

[11] = tested on: soybean (Glycine max); assay: Test B pre-/postemergence plant response
Procedure, shortened: as §1

[12] = tested on: velvetleaf (Abutilon theophrasti); assay: Test B pre-/postemergence plant response
Procedure, shortened: as §1

[13] = tested on: wheat (Triticum aestivum); assay: Test B pre-/postemergence plant response
Procedure, shortened: as §1

[14] = tested on: wild oat (Avena fatua); assay: Test B pre-/postemergence plant response
Procedure, shortened: as §1

[15] = tested on: yellow nutsedge (Cyperus esculentus); assay: Test B pre-/postemergence plant response
Procedure, shortened: as §1

[16] = tested on: canarygrass (Phalaris minor); assay: Test B postemergence plant response
Procedure, shortened: (§2)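 Plants grown in peat/vermiculite medium were sprayed postemergence at 2–18 cm height (1- to 4-leaf stage). After 13–15 days in the greenhouse, response was rated visually against untreated controls on a 0–100 scale (0 no effect, 100 complete control).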

[17] = tested on: chickweed (Stellaria media); assay: Test B postemergence plant response
Procedure, shortened: as §2

[18] = tested on: windgrass (Apera spica-venti); assay: Test B postemergence plant response
Procedure, shortened: as §2

[19] = 31 g ai/ha, postemergence, scale 0 to 100, 0 is no effect, 100 is complete control
[20] = 250 g ai/ha, Preemergence, 0 to 100 scale
[21] = Postemergence, 62 g ai/ha, scale 0 (no effect) to 100 (complete control), 13 to 15 days
[22] = Postemergence, 125 g ai/ha, visual rating after 13 to 15 days, scale 0 (no effect) to 100 (complete control)
[23] = Postemergence, 250 g ai/ha, scale 0 to 100 (0 no effect, 100 complete control)
[24] = Preemergence, 31 g ai/ha, scale 0 to 100 (0 no effect, 100 complete control)
[25] = Preemergence, 62 g ai/ha, scale 0 to 100, 0 no effect, 100 complete control
[26] = Preemergence, 125 g ai/ha, 0 to 100 scale

Structure (SMILES): Cc1ccc(F)c(-n2c(-c3ccccc3)ncc(C(=O)C3=C(O)CCCC3=O)c2=O)c1 [Compound 51]
- Plant response rating, Bermudagrass [1, 19]: 80
- Plant response rating, Bermudagrass [1, 20]: 100
- Plant response rating, Bermudagrass [1, 21]: 90
- Plant response rating, Bermudagrass [1, 22]: 90
- Plant response rating, Bermudagrass [1, 23]: 98
- Plant response rating, Bermudagrass [1, 24]: 95
- Plant response rating, Bermudagrass [1, 25]: 98
- Bermudagrass plant response rating [1, 26]: 100
- Plant response rating, Blackgrass [2, 19]: 0
- Plant response rating, Blackgrass [2, 20]: 20
- Plant response rating, Blackgrass [2, 21]: 30
- Plant response rating, Blackgrass [2, 22]: 50
- Plant response rating, Blackgrass [2, 23]: 55
- Plant response rating, Blackgrass [2, 24]: 0
- Plant response rating, Blackgrass [2, 25]: 0
- Blackgrass plant response rating [2, 26]: 10
- Plant response rating, Cocklebur [3, 19]: 85
- Plant response rating, Cocklebur [3, 20]: 75
- Plant response rating, Cocklebur [3, 21]: 85
- Plant response rating, Cocklebur [3, 22]: 90
- Plant response rating, Cocklebur [3, 23]: 90
- Plant response rating, Cocklebur [3, 24]: 0
- Plant response rating, Cocklebur [3, 25]: 0
- Cocklebur plant response rating [3, 26]: 20
- Plant response rating, Bromegrass, Downy [4, 19]: 50
- Plant response rating, Bromegrass, Downy [4, 20]: 40
- Plant response rating, Bromegrass, Downy [4, 21]: 50
- Plant response rating, Bromegrass, Downy [4, 22]: 55
- Plant response rating, Bromegrass, Downy [4, 23]: 60
- Plant response rating, Bromegrass, Downy [4, 24]: 0
- Plant response rating, Bromegrass, Downy [4, 25]: 0
- Bromegrass, Downy plant response rating [4, 26]: 5
- Plant response rating, Foxtail, Giant [5, 19]: 80
- Plant response rating, Foxtail, Giant [5, 20]: 75
- Plant response rating, Foxtail, Giant [5, 21]: 80
- Plant response rating, Foxtail, Giant [5, 22]: 85
- Plant response rating, Foxtail, Giant [5, 23]: 85
- Plant response rating, Foxtail, Giant [5, 24]: 0
- Plant response rating, Foxtail, Giant [5, 25]: 45
- Foxtail, Giant plant response rating [5, 26]: 50
- Plant response rating, Foxtail, Green [6, 19]: 85
- Plant response rating, Foxtail, Green [6, 20]: 100
- Plant response rating, Foxtail, Green [6, 21]: 95
- Plant response rating, Foxtail, Green [6, 22]: 95
- Plant response rating, Foxtail, Green [6, 23]: 100
- Plant response rating, Foxtail, Green [6, 24]: 50
- Plant response rating, Foxtail, Green [6, 25]: 50
- Foxtail, Green plant response rating [6, 26]: 98
- Plant response rating, Johnsongrass [7, 19]: 75
- Plant response rating, Johnsongrass [7, 20]: 80
- Plant response rating, Johnsongrass [7, 21]: 75
- Plant response rating, Johnsongrass [7, 22]: 85
- Plant response rating, Johnsongrass [7, 23]: 98
- Plant response rating, Johnsongrass [7, 24]: 0
- Plant response rating, Johnsongrass [7, 25]: 5
- Johnsongrass plant response rating [7, 26]: 75
- Plant response rating, Kochia [8, 19]: 20
- Plant response rating, Kochia [8, 21]: 20
- Plant response rating, Kochia [8, 22]: 25
- Plant response rating, Kochia [8, 23]: 35
- Plant response rating, Morningglory [9, 19]: 75
- Plant response rating, Morningglory [9, 20]: 70
- Plant response rating, Morningglory [9, 21]: 80
- Plant response rating, Morningglory [9, 22]: 90
- Plant response rating, Morningglory [9, 23]: 100
- Plant response rating, Morningglory [9, 24]: 0
- Plant response rating, Morningglory [9, 25]: 20
- Morningglory plant response rating [9, 26]: 20
- Plant response rating, Ragweed [10, 19]: 80
- Plant response rating, Ragweed [10, 20]: 90
- Plant response rating, Ragweed [10, 21]: 80
- Plant response rating, Ragweed [10, 22]: 90
- Plant response rating, Ragweed [10, 23]: 95
- Plant response rating, Ragweed [10, 24]: 65
- Ragweed plant response rating [10, 26]: 80
- Plant response rating, Soybean [11, 19]: 85
- Plant response rating, Soybean [11, 20]: 85
- Plant response rating, Soybean [11, 21]: 90
- Plant response rating, Soybean [11, 22]: 95
- Plant response rating, Soybean [11, 23]: 95
- Plant response rating, Soybean [11, 24]: 0
- Soybean plant response rating [11, 26]: 80
- Plant response rating, Velvetleaf [12, 19]: 80
- Plant response rating, Velvetleaf [12, 20]: 100
- Plant response rating, Velvetleaf [12, 21]: 85
- Plant response rating, Velvetleaf [12, 22]: 90
- Plant response rating, Velvetleaf [12, 23]: 95
- Plant response rating, Velvetleaf [12, 24]: 75
- Velvetleaf plant response rating [12, 26]: 98
- Plant response rating, Wheat [13, 19]: 5
- Plant response rating, Wheat [13, 20]: 10
- Plant response rating, Wheat [13, 21]: 10
- Plant response rating, Wheat [13, 22]: 10
- Plant response rating, Wheat [13, 23]: 30
- Plant response rating, Wheat [13, 24]: 0
- Wheat plant response rating [13, 26]: 0
- Plant response rating, Oat, Wild [14, 19]: 60
- Plant response rating, Oat, Wild [14, 20]: 0
- Plant response rating, Oat, Wild [14, 21]: 60
- Plant response rating, Oat, Wild [14, 22]: 60
- Plant response rating, Oat, Wild [14, 23]: 90
- Plant response rating, Oat, Wild [14, 24]: 0
- Oat, Wild plant response rating [14, 26]: 0
- Plant response rating, Nutsedge, Yellow [15, 19]: 60
- Plant response rating, Nutsedge, Yellow [15, 20]: 90
- Plant response rating, Nutsedge, Yellow [15, 21]: 65
- Plant response rating, Nutsedge, Yellow [15, 22]: 75
- Plant response rating, Nutsedge, Yellow [15, 23]: 80
- Plant response rating, Nutsedge, Yellow [15, 24]: 55
- Nutsedge, Yellow plant response rating [15, 26]: 85
- Plant response rating, Canarygrass [16, 19]: 60
- Plant response rating, Canarygrass [16, 21]: 60
- Plant response rating, Canarygrass [16, 22]: 60
- Plant response rating, Canarygrass [16, 23]: 98
- Plant response rating, Chickweed [17, 19]: 80
- Plant response rating, Chickweed [17, 21]: 80
- Plant response rating, Chickweed [17, 22]: 85
- Plant response rating, Chickweed [17, 23]: 95
- Plant response rating, Windgrass [18, 19]: 50
- Plant response rating, Windgrass [18, 21]: 60
- Plant response rating, Windgrass [18, 22]: 60
- Plant response rating, Windgrass [18, 23]: 85
